Square brackets hold non-standard residues; d marks the D form. Ends that are not written are not given here. Peptide text beside a SMILES is read from it. * marks the point of attachment. Phe(4-NO2) = N[C@@H](Cc1ccc([N+](=O)[O-])cc1)C(=O)O; Met(O2) = CS(=O)(=O)CC[C@H](N)C(=O)O; Fmoc = O=C(OCC1c2ccccc2-c2ccccc21)*; Nle = CCCC[C@H](N)C(=O)O; Orn = NCCC[C@H](N)C(=O)O; Thz = O=C(O)[C@@H]1CSCN1; Abu = CC[C@H](N)C(=O)O
Columns and labels:
[1] = molecular target: melittin (Apis mellifera, UniProt P01501); test: cell-based; conditions: read-out: IC50, inhibition of melittin (converted)
[2] = system: Human red blood cells (RBCs); test: Hemolytic activity; type: cell-based
Protocol: Each assay was carried out in 96-well culture tissue plates. Four wells per plate contain 125 μl of a non-peptide positive control (1% Triton in de-ionized water), and four wells per plate contain 125 μl of a control blank, phosphate buffered saline (PBS). The hemolytic peptide melittin was used as comparative control. The controls served to detect possible contamination and to calculate the percent hemolysis of each peptide. Human red blood cells (RBCs) were washed with PBS and centrifuged to separate them from the serum. The cells were then resuspended in PBS to a final suspension of 0.5% RBC. 125 μl of this suspension was added to the peptides and controls solution. The release of hemoglobin resulting from the cell lysis was determined by measuring the OD at 414 nm of 100 μl of the supernatant.

Sequence of melittin (P01501 44-69 limits assumed): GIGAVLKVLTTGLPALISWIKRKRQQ

## Ac-IVIFFM-NH2 [Ac-IVIFFM-NH2]
[1]
  IC50: 25.9 µM

## Ac-IDIYFE-NH2 [Ac-IDIYFE-NH2]
[1]
  IC50: 355 µM

## Ac-IIIWFE-NH2 [Ac-IIIWFE-NH2]
[1]
  IC50: 6.27 µM

## Ac-IVILLW-NH2 [Ac-IVILLW-NH2]
[1]
  IC50: 6.27 µM

## Ac-FIIWCE-NH2 [Ac-FIIWCE-NH2]
[1]
  IC50: 4 µM

## Ac-IVILTG-NH2 [Ac-IVILTG-NH2]
[1]
  IC50: 33.5 µM

## Ac-FQIWFE-NH2 [Ac-FQIWFE-NH2]
[1]
  IC50: 9.01 µM

## Ac-IDIWCE-NH2 [Ac-IDIWCE-NH2]
[1]
  IC50: 978 µM

## Ac-IVILTA-NH2 [Ac-IVILTA-NH2]
[1]
  IC50: 19.4 µM

## Ac-IQIWCE-NH2 [Ac-IQIWCE-NH2]
[1]
  IC50: 6.73 µM

## Ac-IVIFFA-NH2 [Ac-IVIFFA-NH2]
[1]
  IC50: 33.3 µM

## Ac-IVIFFC-NH2 [Ac-IVIFFC-NH2]
[1]
  IC50: 92.1 µM

## Ac-IVIFFY-NH2 [Ac-IVIFFY-NH2]
[1]
  IC50: 24.9 µM

## Ac-FQIYCE-NH2 [Ac-FQIYCE-NH2]
[1]
  IC50: 16.6 µM

## Ac-FDIWFK-NH2 [Ac-FDIWFK-NH2]
[1]
  IC50: 128 µM

## Ac-IQIYFE-NH2 [Ac-IQIYFE-NH2]
[1]
  IC50: 19.9 µM

## Ac-WIQIFI-NH2 [Ac-WIQIFI-NH2]
[1]
  IC50: 25.6 µM

## DDEITF-NH2 [DDEITF-NH2]
[1]
  IC50: 1630 µM

## Ac-IVIFFG-NH2 [Ac-IVIFFG-NH2]
[1]
  IC50: 29.9 µM

## Ac-IVILLQ-NH2 [Ac-IVILLQ-NH2]
[1]
  IC50: 12.2 µM

## Ac-IVILTC-NH2 [Ac-IVILTC-NH2]
[1]
  IC50: 27.1 µM

## Ac-IVIFFT-NH2 [Ac-IVIFFT-NH2]
[1]
  IC50: 30.8 µM

## Ac-IVILLE-NH2 [Ac-IVILLE-NH2]
[1]
  IC50: 10.8 µM

## Ac-FIIWFE-NH2 [Ac-FIIWFE-NH2]
[1]
  IC50: 6.03 µM

## NEEIVI-NH2 [NEEIVI-NH2]
[1]
  IC50: 509 µM

## CC[C@H](C)[C@H](NC(=O)[C@H](CCCCN)NC(=O)[C@H](Cc1c[nH]c2ccccc12)NC(=O)[C@H](CCCCN)NC(=O)OCC1c2ccccc2-c2ccccc21)C(N)=O [(KFmoc)WKI-NH2] (Fmoc-KWKI-NH2)
[2]; Tables 18-21
  HD50 (concentration necessary to lyse 50% of the cells): 141 µg/mL

## CC[C@@H](C)[C@@H](NC(=O)[C@@H](CS)NC(=O)[C@H](CCCCN)NC(=O)OCC1c2ccccc2-c2ccccc21)C(=O)N[C@@H](CCS(C)(=O)=O)C(N)=O [(KFmoc)ci(MetO2)-NH2] (Fmoc-K[dC][dI][Met(O2)]-NH2)
[2]; Tables 18-21
  HD50 (concentration necessary to lyse 50% of the cells): 40 µg/mL

## NCCCC[C@H](NC(=O)OCC1c2ccccc2-c2ccccc21)C(=O)N[C@@H](Cc1c[nH]c2ccccc12)C(=O)N[C@H](Cc1ccccc1)C(=O)N[C@@H](CCCN)C(N)=O [(KFmoc)Wf(Orn)-NH2] (Fmoc-KW[dF][Orn]-NH2)
[2]; Table 20, lower part
  HD50 (concentration necessary to lyse 50% of the cells): 64 μg/m

## NCCCC[C@H](NC(=O)OCC1c2ccccc2-c2ccccc21)C(=O)N[C@@H](Cc1c[nH]c2ccccc12)C(=O)N[C@@H](CCCCN)C(=O)N[C@@H](Cc1ccc([N+](=O)[O-])cc1)C(N)=O [(KFmoc)WK(NO2 F)-NH2] (Fmoc-KWK[Phe(4-NO2)]-NH2)
[2]; Tables 18-21
  HD50 (concentration necessary to lyse 50% of the cells): 67 µg/mL

## CC(C)C[C@H](NC(=O)[C@@H](Cc1ccccc1)NC(=O)[C@H](Cc1c[nH]c2ccccc12)NC(=O)[C@H](CCCCN)NC(=O)OCC1c2ccccc2-c2ccccc21)C(N)=O [(KFmoc)WfL-NH2] (Fmoc-KW[dF]L-NH2)
[2]; Tables 18-21
  HD50 (concentration necessary to lyse 50% of the cells): 294 µg/mL

## CC[C@@H](C)[C@@H](NC(=O)[C@@H](CS)NC(=O)[C@H](CCCCN)NC(=O)OCC1c2ccccc2-c2ccccc21)C(=O)N[C@@H](CCCN)C(N)=O [(KFmoc)ci(Orn)-NH2] (Fmoc-K[dC][dI][Orn]-NH2)
[2]; Tables 18-21
  HD50 (concentration necessary to lyse 50% of the cells): 77 µg/mL

## CCCC[C@H](NC(=O)[C@H](CCCCN)NC(=O)[C@H](Cc1c[nH]c2ccccc12)NC(=O)[C@H](CCCCN)NC(=O)OCC1c2ccccc2-c2ccccc21)C(N)=O [(KFmoc)WK(Nle)-NH2] (Fmoc-KWK[Nle]-NH2)
[2]; Tables 18-21
  HD50 (concentration necessary to lyse 50% of the cells): 91 µg/mL

## NCCCC[C@H](NC(=O)OCC1c2ccccc2-c2ccccc21)C(=O)N[C@@H](Cc1c[nH]c2ccccc12)C(=O)N[C@@H](Cc1ccc(O)cc1)C(=O)NCC(N)=O [(KFmoc)WYG-NH2] (Fmoc-KWYG-NH2)
[2]; Tables 18-21
  HD50 (concentration necessary to lyse 50% of the cells): 376 µg/mL

## CC[C@H](NC(=O)[C@H](Cc1ccc(O)cc1)NC(=O)[C@H](Cc1c[nH]c2ccccc12)NC(=O)[C@H](CCCCN)NC(=O)OCC1c2ccccc2-c2ccccc21)C(N)=O [(KFmoc)WY(aABA)-NH2] (Fmoc-KWY[Abu]-NH2)
[2]; Tables 18-21
  HD50 (concentration necessary to lyse 50% of the cells): 114 µg/mL

## NCCCC[C@H](NC(=O)OCC1c2ccccc2-c2ccccc21)C(=O)N[C@@H](Cc1c[nH]c2ccccc12)C(=O)N[C@@H](CCCCN)C(=O)NCC(N)=O [(KFmoc)WKG-NH2] (Fmoc-KWKG-NH2)
[2]; Tables 18-21
  HD50 (concentration necessary to lyse 50% of the cells): 449 µg/mL

## CC[C@@H](C)[C@@H](NC(=O)[C@@H](CS)NC(=O)[C@H](CCCCN)NC(=O)OCC1c2ccccc2-c2ccccc21)C(=O)N[C@@H](Cc1ccccc1)C(N)=O [(KFmoc)ciF-NH2] (Fmoc-K[dC][dI]F-NH2)
[2]; Tables 18-21
  HD50 (concentration necessary to lyse 50% of the cells): 295 µg/mL

## NCCCC[C@H](NC(=O)[C@H](Cc1ccc(O)cc1)NC(=O)[C@H](Cc1c[nH]c2ccccc12)NC(=O)[C@H](CCCCN)NC(=O)OCC1c2ccccc2-c2ccccc21)C(N)=O [(KFmoc)WYK-NH2] (Fmoc-KWYK-NH2)
[2]; Tables 18-21
  HD50 (concentration necessary to lyse 50% of the cells): 65 µg/mL

## C[C@@H](O)[C@H](NC(=O)[C@H](CCCCN)NC(=O)[C@H](Cc1c[nH]c2ccccc12)NC(=O)[C@H](CCCCN)NC(=O)OCC1c2ccccc2-c2ccccc21)C(N)=O [(KFmoc)WKT-NH2] (Fmoc-KWKT-NH2)
[2]; Tables 18-21
  HD50 (concentration necessary to lyse 50% of the cells): 367 µg/mL

## CC[C@@H](C)[C@@H](NC(=O)[C@@H](CS)NC(=O)[C@H](CCCCN)NC(=O)OCC1c2ccccc2-c2ccccc21)C(=O)N[C@@H](CS)C(N)=O [(KFmoc)ciC-NH2] (Fmoc-K[dC][dI]C-NH2)
[2]; Tables 18-21
  HD50 (concentration necessary to lyse 50% of the cells): 400 µg/mL

## NCCCC[C@H](NC(=O)OCC1c2ccccc2-c2ccccc21)C(=O)N[C@@H](Cc1c[nH]c2ccccc12)C(=O)N[C@H](Cc1ccccc1)C(=O)N1CCC[C@H]1C(N)=O [(KFmoc)WfP-NH2] (Fmoc-KW[dF]P-NH2)
[2]; Tables 18-21
  HD50 (concentration necessary to lyse 50% of the cells): 40 µg/mL

## C[C@H](NC(=O)[C@H](CCCCN)NC(=O)[C@H](Cc1c[nH]c2ccccc12)NC(=O)[C@H](CCCCN)NC(=O)OCC1c2ccccc2-c2ccccc21)C(N)=O [(KFmoc)WKA-NH2] (Fmoc-KWKA-NH2)
[2]; Tables 18-21
  HD50 (concentration necessary to lyse 50% of the cells): 378 µg/mL

## NCCCC[C@H](NC(=O)OCC1c2ccccc2-c2ccccc21)C(=O)N[C@@H](Cc1c[nH]c2ccccc12)C(=O)N[C@@H](Cc1ccc(O)cc1)C(=O)N1CSC[C@H]1C(N)=O [(KFmoc)WY(Thiopro)-NH2] (Fmoc-KWY[Thz]-NH2)
[2]; Tables 18-21
  HD50 (concentration necessary to lyse 50% of the cells): 488 µg/mL

## CC[C@@H](C)[C@@H](NC(=O)[C@@H](CS)NC(=O)[C@H](CCCCN)NC(=O)OCC1c2ccccc2-c2ccccc21)C(=O)N[C@@H](C)C(N)=O [(KFmoc)ciA-NH2] (Fmoc-K[dC][dI]A-NH2)
[2]; Tables 18-21
  HD50 (concentration necessary to lyse 50% of the cells): 68 µg/mL

— patent US5440016A, “Peptides of the formula (KFmoc) ZZZ and their uses” (priority 1993, dated 1995)
